Laboratory results published in ChEMBL document CHEMBL1201862, “PubChem BioAssay data set” (2004).
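1) Cells in 96-well plates. 2) Compound, 48 h, 5 concentrations. 3) Linear interpolation between surrounding doses. 4) Unreached endpoint = highest concentration. The concentration for 50% growth inhibition is given as GI50.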 Active and inactive are the calls of the source. Rule as the data show it: active = GI50 up to about 1.1 µM and inactive = higher. *1 amine or outer side, *2 acyl side, *3 side chain or, on linkers, in order; H or OH if unused. Where a SMILES comes first, the peptide text is derived from it. [ ]: non-standard residue; d: D form. The star is where a group is joined. ξ: configuration not given here. X43 = CCC(=O)CC(O)CC(C)CC(N[*:1])C(=O)[*:2]; ξLeu(3ξ-OH) = CC(C)C(O)C(N)C(=O)O; ξPro(4ξ-Me) = CC1CNC(C(=O)O)C1; X42 = CCC(C)/C=C/C(=O)*; Aib = CC(C)(N)C(=O)O; X44 = CC(CN(C)C)N*; βAla = NCCC(=O)O

Assays:
Test in all cases: growth of human tumour cells (NCI), 48 h
A498 = test system: A498
CAKI-1 = test system: CAKI-1
COLO 205 = test system: COLO 205
DU-145 = test system: DU-145
HCT-15 = test system: HCT-15
HL-60 = test system: HL-60
HT-29 = test system: HT-29
M14 = test system: M14
MDA-MB-231 = test system: MDA-MB-231
MDA-N = test system: MDA-N
MOLT-4 = test system: MOLT-4
NCI-H522 = test system: NCI-H522
RXF 393 = test system: RXF 393
SF-268 = test system: SF-268
SK-MEL-2 = test system: SK-MEL-2
SK-MEL-5 = test system: SK-MEL-5
SN12C = test system: SN12C
T47D = test system: T47D
U-251 = test system: U-251
UACC-62 = test system: UACC-62

Structure (SMILES) | GI50 (A498) | GI50 (CAKI-1) | GI50 (COLO 205) | GI50 (DU-145) | GI50 (HCT-15) | GI50 (HL-60) | GI50 (HT-29) | GI50 (M14) | GI50 (MDA-MB-231) | GI50 (MDA-N) | GI50 (MOLT-4) | GI50 (NCI-H522) | GI50 (RXF 393) | GI50 (SF-268) | GI50 (SK-MEL-2) | GI50 (SK-MEL-5) | GI50 (SN12C) | GI50 (T47D) | GI50 (U-251) | GI50 (UACC-62)
CCC(=O)CC(O)CC(C)CC(NC(=O)C1CC(C)CN1C(=O)/C=C/C(C)CC)C(=O)NC(C(=O)NC(C)(C)C(=O)NC(CC(C)C)C(=O)NC(CC(C)C)C(=O)NC(C)(C)C(=O)NC(C)(C)C(=O)NCCC(=O)NC(C)CN(C)C)C(O)C(C)C (stereo not given) (X42-[ξPro(4ξ-Me)][X43][ξLeu(3ξ-OH)][Aib]LL[Aib][Aib][βAla]-X44; configuration not given here) | 0.495 µM (active) | 1.19 µM (inactive) | 0.0131 µM (active) | 0.351 µM (active) | 5.4 µM | 0.00951 µM (active) | 0.0728 µM (active) | 0.615 µM (active) | 0.133 µM (active) | 0.0818 µM (active) | 0.00887 µM (active) | < 0.005 µM (active) | 0.38 µM (active) | 0.0526 µM (active) | 0.12 µM (active) | < 0.005 µM (active) | 0.261 µM (active) | < 0.005 µM (active) | < 0.005 µM (active) | 0.268 µM (active)
C1CCNCC1.Oc1ncnc2[nH]cc(CN3CCCCC3)c12 | > 100 µM (inactive) | > 100 µM (inactive) | 73.3 µM (inactive) | 32.5 µM (inactive) | > 100 µM | 19.8 µM (inactive) | 39.3 µM (inactive) | > 100 µM (inactive) | > 100 µM (inactive) | 30.4 µM (inactive) | 15.2 µM (inactive) | 86.3 µM (inactive) | 43.8 µM (inactive) | 87.9 µM (inactive) | > 100 µM (inactive) | > 100 µM (inactive) | 48.8 µM (inactive) | 57.9 µM (inactive) | > 100 µM (inactive) | 83.9 µM (inactive)
C[C@H](NC(=O)C(Cc1ccccc1)(Cc1ccc(O)cn1)NC(=O)c1ccccc1)c1ccccc1 (stereo not given in full) | 18.1 µM (inactive) | 26.9 µM (inactive) | 19.1 µM (inactive) | 18.6 µM (inactive) | 18 µM | 25.1 µM (inactive) | 17.5 µM (inactive) | 15.3 µM (inactive) | 15.6 µM (inactive) | 15.5 µM (inactive) | 16.9 µM (inactive) | 15.5 µM (inactive) | 14.3 µM (inactive) | 18.2 µM (inactive) | 14.2 µM (inactive) | 19.4 µM (inactive) | 16.9 µM (inactive) | 18.5 µM (inactive) | 15.3 µM (inactive) | 13.2 µM (inactive)
C/C(=N\NC(=S)N1CC2CCC(CC2)C1)c1cccc(C)n1 | 3.11 µM (inactive) | 1.11 µM (active) | 0.01 µM (active) | 0.617 µM (active) | 0.537 µM | 0.01 µM (active) | 0.01 µM (active) | 0.269 µM (active) | 0.224 µM (active) | 2.82 µM (inactive) | 0.01 µM (active) | 0.00432 µM (active) | 3.72 µM (inactive) | 0.533 µM (active) | 4.7 µM (inactive) | 1.96 µM (inactive) | 0.566 µM (active) | 0.01 µM (active) | 0.551 µM (active) | 0.621 µM (active)
CCCCC1CCCCCCc2[nH]c(/C=C3\N=C(c4ccc[nH]4)C=C3OC)cc21 (stereo not given) | 0.515 µM (active) | 0.0502 µM (active) | < 0.011 µM (active) | < 0.0109 µM (active) | < 0.01 µM | < 0.01 µM (active) | < 0.01 µM (active) | 0.0136 µM (active) | < 0.024 µM (active) | < 0.0139 µM (active) | < 0.01 µM (active) | < 0.016 µM (active) | 0.078 µM (active) | 0.0676 µM (active) | < 0.0124 µM (active) | 0.0128 µM (active) | < 0.0185 µM (active) | < 0.01 µM (active) | < 0.0122 µM (active) | < 0.0127 µM (active)
CC(=O)NNc1nc(C)c(C(/C=C/c2ccc3c(c2)OCO3)=N/Nc2ccccc2)s1 | > 100 µM (inactive) | > 100 µM (inactive) | > 100 µM (inactive) | > 100 µM (inactive) | > 100 µM | > 100 µM (inactive) | > 100 µM (inactive) | > 100 µM (inactive) | > 100 µM (inactive) | > 100 µM (inactive) | > 100 µM (inactive) | > 100 µM (inactive) | > 100 µM (inactive) | > 100 µM (inactive) | > 100 µM (inactive) | > 100 µM (inactive) | > 100 µM (inactive) | > 100 µM (inactive) | > 100 µM (inactive) | > 100 µM (inactive)
C=C1C(=O)OC2C1C(OC(=O)/C(C)=C/C)CC(O)(CCl)C1C(OC(C)=O)C=C(C)C21O (stereo not given) | 21.8 µM (inactive) | 7.11 µM (inactive) | 8.3 µM (inactive) | 15.2 µM (inactive) | 6.46 µM | 1.89 µM (inactive) | 16.3 µM (inactive) | 12.6 µM (inactive) | 20.1 µM (inactive) | 16.8 µM (inactive) | 3.69 µM (inactive) | 1.99 µM (inactive) | 11.2 µM (inactive) | 16 µM (inactive) | 15.9 µM (inactive) | 14.1 µM (inactive) | 16.2 µM (inactive) | 18 µM (inactive) | 20.2 µM (inactive) | 14.3 µM (inactive)
CCCCCCOc1ccc(C(=O)N(C)O)cc1 | 26.5 µM (inactive) | 15.6 µM (inactive) | 14.2 µM (inactive) | 16.5 µM (inactive) | 4.41 µM | 4.01 µM (inactive) | 10.9 µM (inactive) | 12.6 µM (inactive) | 41.9 µM (inactive) | 27.6 µM (inactive) | 4.97 µM (inactive) | 9.86 µM (inactive) | 13.1 µM (inactive) | 11.5 µM (inactive) | 32.4 µM (inactive) | 17.6 µM (inactive) | 11.9 µM (inactive) | 23.6 µM (inactive) | 12.5 µM (inactive) | 16.1 µM (inactive)
CCc1[nH]c(=O)nc(N)c1-c1ccc(N2CCCCC2)c([N+](=O)[O-])c1 | > 100 µM (inactive) | > 100 µM (inactive) | > 100 µM (inactive) | > 100 µM (inactive) | > 100 µM | 88.7 µM (inactive) | > 100 µM (inactive) | > 100 µM (inactive) | 98.4 µM (inactive) | > 100 µM (inactive) | > 100 µM (inactive) | > 100 µM (inactive) | > 100 µM (inactive) | > 100 µM (inactive) | > 100 µM (inactive) | > 100 µM (inactive) | > 100 µM (inactive) | > 100 µM (inactive) | > 100 µM (inactive) | > 100 µM (inactive)
COC1=C(OC)C(=O)C(Cc2c(-c3ccccc3)nc3sc(Cl)cn23)=C(C)C1=O | 20.2 µM (inactive) | 21 µM (inactive) | 18.7 µM (inactive) | 20 µM (inactive) | 14.5 µM | 7.91 µM (inactive) | 20.1 µM (inactive) | 15.8 µM (inactive) | 11 µM (inactive) | 16.3 µM (inactive) | 1.96 µM (inactive) | 13.6 µM (inactive) | 17.1 µM (inactive) | 18.8 µM (inactive) | 15.6 µM (inactive) | 15.2 µM (inactive) | 16.4 µM (inactive) | 23.4 µM (inactive) | 18.5 µM (inactive) | 11.9 µM (inactive)
O=C1C2CCN(CC2)C1(CO)CO | > 51.1 µM (inactive) | 19.2 µM (inactive) | 18.7 µM (inactive) | 17.3 µM (inactive) | 16.1 µM | 38.7 µM (inactive) | 28 µM (inactive) | 18.3 µM (inactive) | 20.9 µM (inactive) | 39.1 µM (inactive) | 7.01 µM (inactive) | 13.1 µM (inactive) | 21.1 µM (inactive) | > 100 µM (inactive) | 71.8 µM (inactive) | 47.4 µM (inactive) | 17.6 µM (inactive) | 19.5 µM (inactive) | 41.1 µM (inactive) | 25.1 µM (inactive)
O=C(OCc1ccccc1)N(CCCCN(CCCNC(=O)C(F)(F)F)C(=O)OCc1ccccc1)CCCNC(=O)C(F)(F)F | > 100 µM (inactive) | 1.56 µM (inactive) | > 88.1 µM (inactive) | > 100 µM (inactive) | > 100 µM | > 100 µM (inactive) | > 28.4 µM (inactive) | > 100 µM (inactive) | > 100 µM (inactive) | > 100 µM (inactive) | 8.87 µM (inactive) | 2.94 µM (inactive) | > 100 µM (inactive) | > 100 µM (inactive) | > 100 µM (inactive) | > 36.8 µM (inactive) | > 100 µM (inactive) | > 100 µM (inactive) | > 100 µM (inactive) | > 100 µM (inactive)
C=CCOc1ccc(N)c([N+](=O)[O-])c1 | 33.3 µM (inactive) | > 100 µM (inactive) | > 100 µM (inactive) | > 100 µM (inactive) | > 100 µM | > 100 µM (inactive) | > 100 µM (inactive) | > 100 µM (inactive) | > 10 µM (inactive) | > 100 µM (inactive) | > 100 µM (inactive) | 63.4 µM (inactive) | > 100 µM (inactive) | > 100 µM (inactive) | > 100 µM (inactive) | > 100 µM (inactive) | > 100 µM (inactive) | > 100 µM (inactive) | > 100 µM (inactive) | > 100 µM (inactive)
CC(=O)NC1=C(C)C(=O)c2c(nc3n2CC[C@H]3OC(C)=O)C1=O | 16.8 µM (inactive) | 3.98 µM (inactive) | 1.91 µM (inactive) | 15.9 µM (inactive) | 3.58 µM | 0.834 µM (active) | 2.47 µM (inactive) | 2.06 µM (inactive) | 1.37 µM (inactive) | 0.628 µM (active) | 0.243 µM (active) | 1.54 µM (inactive) | 1.73 µM (inactive) | 2.87 µM (inactive) | 1.41 µM (inactive) | 3.09 µM (inactive) | 1.49 µM (inactive) | 0.238 µM (active) | 1.59 µM (inactive) | 1.69 µM (inactive)
